# Assay: log k′ (degree of lipophilic character) by gradient HPLC
# Format: physicochemical
# Settings: XTerra MS C18 column; acetonitrile/pH6.8 buffer gradient 5:95-95:5/20 min
# Method: As to each compound, the measurement results of NMR or log k′ were disclosed.
# log k′ is a value which means degree of the lipophilic character, and is calculated by the following formula. log k′=log(tR−t0)/t0 • tR: retention time of compound under gradient condition • t0: retention time of standard material not retained in column
# XTerra MS C18 5 μm, 2.1×100 mm column (made by Waters) was used for measurement. The elution was a straight line inclination of acetonitrile/pH6.8 buffer (5:95˜95:5/20 min) at flow velocity 0.25 mL/min.
row,Structure (SMILES),log k′
1,CC(C)COc1c(C(=O)NC2CCCCCCCCC2)cnn1/C=C/C(C)(C)C(N)=O [Compound I-2],1.014
2,COC(=O)NC(C)(C)/C=C/n1ncc(C(=O)NC2CCCCCCCCC2)c1OCC(C)C [Compound I-3],1.066
3,CC(=O)NC(C)(C)/C=C/n1ncc(C(=O)N[C@H]2C3CCCC2C[C@H](C(N)=O)C3)c1OCC(C)C [Compound I-5],0.795
4,Cc1nnc(C(C)(C)/C=C/n2ncc(C(=O)N[C@H]3C4CC5CC3C[C@](OC(N)=O)(C5)C4)c2OCC(C)C)o1 [Compound I-8],0.883
5,CC(=O)NC(C)(C)/C=C/n1ncc(C(=O)N[C@H]2C3CC4CC2C[C@](OC(N)=O)(C4)C3)c1OCC(C)C [Compound I-10],0.798
6,CC(=O)NC(C)(C)CCn1ncc(C(=O)N[C@H]2C3CC4CC2C[C@](OC(N)=O)(C4)C3)c1OCC(C)C [Compound I-11],0.831
7,CC(=O)NC(C)(C)/C=C/n1ncc(C(=O)NC23CCC(C(N)=O)(CC2)C3)c1OCC(C)C [Compound I-12],0.763
8,COC(=O)NC(C)(C)/C=C/n1ncc(C(=O)NC23CCC(C(N)=O)(CC2)C3)c1OCC(C)C [Compound I-13],0.822
9,C=CCC1C2CCC(C2)C1NC(=O)c1cnn(/C=C/C(C)(C)NC(C)=O)c1OCC(C)C (stereo not shown) [Compound I-14],0.981
10,CC(=O)NC(C)(C)CCn1ncc(C(=O)N[C@H]2C3CC4CC2C[C@](CO)(C4)C3)c1OCC(C)C [Compound I-16],0.842
11,COC(=O)NC(C)(C)/C=C/n1ncc(C(=O)N[C@H]2C3CC4CC2C[C@](COC(N)=O)(C4)C3)c1OCC(C)C [Compound I-17],0.916
12,CC(C)COc1c(C(=O)N[C@H]2C3CC4CC2C[C@](OC(N)=O)(C4)C3)cnn1/C=C/C(C)(C)C(=O)NC(N)=O [Compound I-18],0.866
13,COC(=O)NC(C)(C)/C=C/n1ncc(C(=O)N[C@H]2C3CC4CC2C[C@](CO)(C4)C3)c1OCC(C)C [Compound I-19],0.907
14,CCC(=O)N[C@]12CC3CC(C1)[C@@H](NC(=O)c1cnn(/C=C/C(C)(C)C(N)=O)c1OCC(C)C)C(C3)C2 [Compound I-20],0.845
15,CCC(=O)N[C@]12CC3CC(C1)[C@@H](NC(=O)c1cnn(/C=C/C(C)(C)NC(=O)OC)c1OCC(C)C)C(C3)C2 [Compound I-21],0.909
16,CC(C)COc1c(C(=O)N[C@H]2C3CC4CC2C[C@](OC(N)=O)(C4)C3)cnn1/C=C/C(C)(C)N1CCOC1=O [Compound I-22],0.879
17,COC(=O)NC(C)(C)/C=C/n1ncc(C(=O)N[C@H]2C3CC4CC2C[C@](CO)(C4)C3)c1OC(C)C [Compound I-23],0.864
18,CCC(=O)NC(C)(C)/C=C/n1ncc(C(=O)N[C@H]2C3CC4CC2C[C@](OC(N)=O)(C4)C3)c1OCC(C)C [Compound I-24],0.876
19,CC(C)COc1c(C(=O)N[C@H]2C3CC4CC2C[C@](O)(C4)C3)cnn1/C=C/C(C)(C)NC(=O)C(C)C [Compound I-25],0.87
20,CC(C)COc1c(C(=O)N[C@H]2C3CC4CC2C[C@](O)(C4)C3)cnn1/C=C/C(C)(C)NC(=O)CC(C)C [Compound I-26],0.895
21,CC(C)COc1c(C(=O)N[C@H]2C3CC4CC2C[C@](OC(N)=O)(C4)C3)cnn1/C=C/C(C)(C)NC(=O)C(C)C [Compound I-27],0.903
22,CC(C)COc1c(C(=O)N[C@H]2C3CC4CC2C[C@](OC(N)=O)(C4)C3)cnn1/C=C/C(C)(C)NC(=O)CC(C)C [Compound I-28],0.927
23,CC(=O)NC(C)(C)/C=C/n1ncc(C(=O)N[C@H]2C3CC4CC2C[C@](CO)(C4)C3)c1OC(C)C [Compound I-31],0.819
24,COC(=O)NC(C)(C)/C=C/n1ncc(C(=O)N[C@H]2C3CCCC2C[C@@H](C#N)C3)c1OCC(C)C [Compound I-33],0.955
25,CCCC(=O)NC(C)(C)/C=C/n1ncc(C(=O)N[C@H]2C3CC4CC2C[C@](O)(C4)C3)c1OCC(C)C [Compound I-34],0.877
26,CC(C)COc1c(C(=O)N[C@H]2C3CC4CC2C[C@](O)(C4)C3)cnn1/C=C/C(C)(C)NC(=O)C1CCCC1 [Compound I-35],0.921
27,CC(=O)NC(C)(C)/C=C/n1ncc(C(=O)N[C@H]2C3CCCC2C[C@@H](C(N)=O)C3)c1OCC(C)C [Compound I-42],0.805
28,CC(=O)NC(C)(C)/C=C/n1ncc(C(=O)N[C@H]2C3CCCC2C[C@@H](CO)C3)c1OCC(C)C [Compound I-43],0.851

row,Structure (SMILES),log k′
1,CC(=O)NC(C)(C)/C=C/n1ncc(C(=O)N[C@H]2C3CCCC2C[C@@H](COC(N)=O)C3)c1OCC(C)C [Compound I-45],0.865
2,COC(=O)NC(C)(C)/C=C/n1ncc(C(=O)N[C@H]2C3CCCC2C[C@@H](COC(N)=O)C3)c1OCC(C)C [Compound I-46],0.913
3,CC(C)COc1c(C(=O)N[C@H]2C3CC4CC2C[C@](OC(N)=O)(C4)C3)cnn1/C=C/C(C)(C)NC(=O)C1CCCC1 [Compound I-49],0.945
4,CC(C)COc1c(C(=O)N[C@H]2C3CC4CC2C[C@](OC(N)=O)(C4)C3)cnn1/C=C/C(C)(C)NC(=O)CCC1CCCC1 [Compound I-50],0.989
5,COCC(=O)NC(C)(C)/C=C/n1ncc(C(=O)N[C@H]2C3CC4CC2C[C@](OC(N)=O)(C4)C3)c1OCC(C)C [Compound I-51],0.882
6,COC(=O)N[C@]12CC3CC(C1)[C@@H](NC(=O)c1cnn(/C=C/C(C)(C)NC(C)=O)c1OCC(C)C)C(C3)C2 [Compound I-54],0.886
7,CC(=O)NC[C@]12CC3CC(C1)[C@@H](NC(=O)c1cnn(/C=C/C(C)(C)NC(C)=O)c1OCC(C)C)C(C3)C2 [Compound I-56],0.838
8,CC(=O)NC(C)(C)CCn1ncc(C(=O)N[C@H]2C3CC4CC2C[C@](COC(N)=O)(C4)C3)c1OCC(C)C [Compound I-57],0.852
9,COC(=O)NC(C)(C)CCn1ncc(C(=O)N[C@H]2C3CC4CC2C[C@](COC(N)=O)(C4)C3)c1OCC(C)C [Compound I-58],0.899
10,CCONC(=O)[C@]12CC3CC(C1)[C@@H](NC(=O)c1cnn(/C=C/C(C)(C)NC(C)=O)c1OCC(C)C)C(C3)C2 [Compound I-59],0.833
11,CONC(=O)[C@]12CC3CC(C1)[C@@H](NC(=O)c1cnn(/C=C/C(C)(C)NC(C)=O)c1OCC(C)C)C(C3)C2 [Compound I-60],0.813
12,CNC(=O)C(C)(C)/C=C/n1ncc(C(=O)N[C@H]2C3CC4CC2C[C@](OC(N)=O)(C4)C3)c1OCC(C)C [Compound I-61],0.841
13,CONC(=O)C(C)(C)/C=C/n1ncc(C(=O)N[C@H]2C3CC4CC2C[C@](O)(C4)C3)c1OCC(C)C [Compound I-62],0.794
14,CC(=O)NCC(C)(C)/C=C/n1ncc(C(=O)N[C@H]2C3CC4CC2C[C@](O)(C4)C3)c1OCC(C)C [Compound I-64],0.814
15,CONC(=O)C(C)(C)/C=C/n1ncc(C(=O)N[C@H]2C3CC4CC2C[C@](OC(N)=O)(C4)C3)c1OCC(C)C [Compound I-65],0.838
16,CNC(=O)OC[C@]12CC3CC(C1)[C@@H](NC(=O)c1cnn(/C=C/C(C)(C)NC(C)=O)c1OCC(C)C)C(C3)C2 [Compound I-66],0.886
17,CC(=O)NC(C)(C)/C=C/n1ncc(C(=O)N[C@H]2C3CC4CC2C[C@](C(=O)NC(N)=O)(C4)C3)c1OCC(C)C [Compound I-67],0.82
18,CC(=O)NCC(C)(C)/C=C/n1ncc(C(=O)N[C@H]2C3CC4CC2C[C@](OC(N)=O)(C4)C3)c1OCC(C)C [Compound I-68],0.85
19,CCC(=O)NC(C)(C)/C=C/n1ncc(C(=O)N[C@H]2C3CCCC2C[C@@H](CO)C3)c1OCC(C)C [Compound I-69],0.866
20,CCC(=O)NC(C)(C)/C=C/n1ncc(C(=O)N[C@H]2C3CCCC2C[C@@H](COC(N)=O)C3)c1OCC(C)C [Compound I-70],0.882
21,CCNC(=O)C(C)(C)/C=C/n1ncc(C(=O)N[C@H]2C3CC4CC2C[C@](OC(N)=O)(C4)C3)c1OCC(C)C [Compound I-71],0.868
22,CC(C)COc1c(C(=O)NC2C3CC4CC2CC(OC(N)=O)(C4)C3)cnn1/C=C/C(C)(C)CO (stereo not shown) [Compound I-73],0.876
23,CC(C)COc1c(C(=O)N[C@H]2C3CC4CC2C[C@](COC(N)=O)(C4)C3)cnn1/C=C/C(C)(C)CO [Compound I-74],0.896
24,CC(C)COc1c(C(=O)N[C@H]2C3CC4CC2C[C@](OC(N)=O)(C4)C3)cnn1/C=C/C(C)(C)NC(=O)COc1ccccc1 [Compound I-75],0.95
25,CC(C)COc1c(C(=O)N[C@H]2C3CC4CC2C[C@](OC(N)=O)(C4)C3)cnn1/C=C/C(C)(C)NC(=O)CCc1ccccc1 [Compound I-76],0.946
26,CC(C)COc1c(C(=O)N[C@H]2C3CC4CC2C[C@](O)(C4)C3)cnn1/C=C/C(C)(C)NC(=O)C1CCOCC1 [Compound I-79],0.818
27,CC(C)COc1c(C(=O)N[C@H]2C3CC4CC2C[C@](OC(N)=O)(C4)C3)cnn1/C=C/C(C)(C)NC(=O)C1CCOCC1 [Compound I-80],0.852

# From patent US8383622B2 (priority 2007, dated 2013)
